In patent US20070155720A1, “Co-administration of dopamine-receptor binding compounds” (DarPharma, Inc., priority 2003, published 2007):
Counter-ions that a name gives are not always drawn. Like-named read-outs stand apart in the source and are kept apart here. Each block holds one molecule with its values, some of them ahead of it.

How the values were obtained:
dopamine D1 receptor = dopamine D1 receptor (Homo sapiens, UniProt P21728); assay: D1 activity of hexahydrobenzo[a]phenanthridines, structure-activity statements; details: relative to dihydrexidine
D2 receptor = D2 receptor (Homo sapiens, UniProt P14416); assay: D2 potency of substituted hexahydrobenzo[a]phenanthridines, structure-activity statement; details: relative to dihydrexidine
D1 receptors = target: T1, D1 receptors (Rattus norvegicus, UniProt P18901); assay: Affinity for D1 receptors in rat brain striatal homogenates labeled with 3H-SCH 23390; format: binding; details: for D1:D2 Selectivity: ratio of D2 to D1 affinity, rat striatal homogenates
T1 construct: utilizing rat brain striatal homogenates having D1 and D2 receptors; from tissue; host or cells: rat brain striatum homogenate

D1 receptor = D1 receptor (Homo sapiens, UniProt P21728); assay: Affinity and selectivity for the D1 receptor stated in the description, no method given; format: binding; details: exemplary compounds, b98
[1] = Half-life and duration of functional activity; format: in vivo
D2L receptors = D2L receptors (Homo sapiens, UniProt P14416); assay: Inhibition of forskolin-stimulated adenylate cyclase through D2L receptors in CHO cells; format: cell-based; details: compared with quinpirole
D4 receptor [2] = target: T2, D4 receptor (Rattus norvegicus, UniProt P30729); assay: Inhibition of forskolin-stimulated adenylate cyclase through D4 receptors in CHO cells; format: cell-based
T2 sequence (P30729 1-387): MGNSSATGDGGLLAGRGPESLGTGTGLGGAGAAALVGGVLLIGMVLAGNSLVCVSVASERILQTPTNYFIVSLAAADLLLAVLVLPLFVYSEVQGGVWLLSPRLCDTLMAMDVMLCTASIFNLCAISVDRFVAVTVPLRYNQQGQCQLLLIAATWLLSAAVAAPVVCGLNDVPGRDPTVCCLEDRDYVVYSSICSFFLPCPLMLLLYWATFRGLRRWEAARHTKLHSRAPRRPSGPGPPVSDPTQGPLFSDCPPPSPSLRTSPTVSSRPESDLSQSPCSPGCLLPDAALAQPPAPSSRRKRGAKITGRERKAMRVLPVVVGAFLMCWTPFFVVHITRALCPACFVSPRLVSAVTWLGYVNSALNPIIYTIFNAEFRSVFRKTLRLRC

[3] = system: adenylate cyclase in rat brain striatum; assay: Activation of adenylate cyclase in rat brain striatum; format: biochemical; details: compared with dopamine
D4 receptor [4] = target: T2, D4 receptor; assay: Binding, cloned D4 receptor in CHO cells; parameters: expressed in transfected cells; host or cells: CHO cells; details: read-out: Cloned Receptors D4 CHO (rat)
monkeys = details: aged and reserpine-treated monkeys; cited from earlier work
[5] = system: rats with scopolamine-induced deficits; assay: Passive avoidance in rats, scopolamine-induced amnesia; format: in vivo, rat; details: 3.0 mg/kg ip
Method: The protocol summarized below is one of many variants of the passive avoidance procedure using scopolamine-induced amnesia (for review see Rush, Behav Neural Biol 50:255-274, 1988). This procedure is commonly used to identify drugs that may be useful in treating cognitive deficits, particularly those observed in AD. The effects of the D
Testing was conducted in standard 2-compartment rectangular passive avoidance chambers (San Diego Instruments, San Diego, Calif.) with black plexiglas sides and grid floors. The light compartment of the chambers were illuminated by a 20 W lamp located in this compartment; the dark side of the chambers will be shielded from light, except for light penetrating the opening connecting the two compartments of each chamber.
On training day, groups of 8 rats were injected with scopolamine (3.0 mg/kg, ip) or vehicle (1.0 ml/kg) 30 min prior to training. Scopolamine served as the dementing agent in this experiment. Ten min prior to training, each group of rats received a second injection of vehicle or a dose of DHX. At the end of the pretreatment interval, each rat was placed individually in the light compartment facing away from the opening between compartments. The latency for each rat to travel from the light to the dark compartment was measured up to a maximum of 300 sec; any animal not entering the dark compartment within 300 sec was discarded from the test group. Once the animal entered the dark compartment completely, a 1.0 milliampere, 3.0 sec scrambled shock was delivered to the entire grid floor. The animal was allowed to remain in the dark compartment during this 3.0 sec period or to escape to the light compartment. Each rat was then returned immediately to its home cage.
Twenty-four hr after training, each rat was tested in the same apparatus for retention of the task (to remain passively in the light compartment). […] The latency for animals to enter the dark compartment on test day (step-through latency) was recorded up to a maximum of 600 sec. Each animal was used only once in a single experiment.
A one-way analysis of variance (ANOVA) and Newman-Keuls post-hoc comparisons were used to identify significant deficits in passive avoidance responding produced by scopolamine and their reversal by DHX; a p value of less than 0.05 was used as the level of significance.

T1 sequence (P18901 whole entry): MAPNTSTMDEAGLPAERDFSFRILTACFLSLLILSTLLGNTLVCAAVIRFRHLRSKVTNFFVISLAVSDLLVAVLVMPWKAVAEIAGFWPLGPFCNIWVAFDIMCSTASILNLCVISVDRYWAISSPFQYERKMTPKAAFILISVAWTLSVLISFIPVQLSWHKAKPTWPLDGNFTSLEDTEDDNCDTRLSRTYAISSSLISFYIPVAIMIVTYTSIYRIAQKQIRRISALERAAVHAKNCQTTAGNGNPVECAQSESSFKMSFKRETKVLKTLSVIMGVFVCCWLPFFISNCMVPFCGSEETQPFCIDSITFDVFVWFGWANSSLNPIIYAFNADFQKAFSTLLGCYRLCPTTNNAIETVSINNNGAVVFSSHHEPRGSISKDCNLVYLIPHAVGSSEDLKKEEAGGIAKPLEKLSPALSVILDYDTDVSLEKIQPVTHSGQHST
Chain of dopamine D1 receptor (P21728 whole entry): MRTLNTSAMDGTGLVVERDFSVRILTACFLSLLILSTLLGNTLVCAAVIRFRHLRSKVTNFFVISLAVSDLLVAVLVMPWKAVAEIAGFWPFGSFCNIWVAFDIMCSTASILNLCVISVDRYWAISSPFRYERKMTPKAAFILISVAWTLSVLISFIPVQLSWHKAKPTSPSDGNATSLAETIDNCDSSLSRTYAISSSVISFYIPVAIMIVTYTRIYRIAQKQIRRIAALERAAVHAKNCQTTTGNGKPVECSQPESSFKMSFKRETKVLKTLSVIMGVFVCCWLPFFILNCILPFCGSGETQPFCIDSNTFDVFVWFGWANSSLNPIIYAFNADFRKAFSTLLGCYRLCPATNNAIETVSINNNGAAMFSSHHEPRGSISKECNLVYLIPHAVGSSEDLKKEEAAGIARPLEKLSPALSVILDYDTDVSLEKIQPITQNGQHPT
Chain of D1 receptor (P21728 whole entry): as above
Chain of D2 receptor (P14416 whole entry): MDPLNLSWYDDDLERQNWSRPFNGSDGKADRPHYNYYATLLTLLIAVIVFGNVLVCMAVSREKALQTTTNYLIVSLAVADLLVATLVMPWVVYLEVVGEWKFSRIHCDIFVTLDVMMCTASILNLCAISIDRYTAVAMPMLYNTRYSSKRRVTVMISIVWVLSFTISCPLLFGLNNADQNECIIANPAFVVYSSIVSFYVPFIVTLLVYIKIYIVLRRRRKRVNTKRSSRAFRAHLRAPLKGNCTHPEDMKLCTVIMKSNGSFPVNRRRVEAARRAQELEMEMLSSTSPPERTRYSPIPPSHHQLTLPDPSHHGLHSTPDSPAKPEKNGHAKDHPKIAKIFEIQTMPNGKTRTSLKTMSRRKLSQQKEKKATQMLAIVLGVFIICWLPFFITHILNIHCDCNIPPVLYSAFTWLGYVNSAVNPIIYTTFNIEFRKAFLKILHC
Chain of D2L receptors (P14416 whole entry): as above

- melting point: 298 to 302 °C (dec.)
Compound: Br.Oc1ccc2c(c1O)Oc1cccc3c1C2CNC3 (centres unmarked) [Compound 16a, 8,9-dihydroxy-1,2,3,11b-tetrahydrochromeno[4,3,2-de]isoquinoline hydrobromide]
- D1:D2 selective (D1 receptor): equally high affinity for both receptor subtypes

- melting point: 251 to 253 °C (dec.)
Compound: C=CCN1Cc2cccc3c2C(C1)c1ccc(O)c(O)c1O3 (centres unmarked) [Compound 16b, N-allyl-8,9-dihydroxy-1,2,3,11b-tetrahydrochromeno[4,3,2-de]isoquinoline]

- melting point: 259 to 264 °C (dec.)
Compound: CCCN1Cc2cccc3c2C(C1)c1ccc(O)c(O)c1O3 (centres unmarked) [Compound 16c, N-propyl-8,9-dihydroxy-1,2,3,11b-tetrahydrochromeno[4,3,2-de]isoquinoline]

The remaining lines, values behind:

Compound: Oc1ccc2c(c1O)Cc1cccc3c1C2CNC3 (centres unmarked) (as salt: hydrobromid) [Compound 29, 8,9-Dihydroxy-2,3,7,11b-tetrahydro-1H-napth[1,2,3-de]isoquinoline]
- melting point: 258 °C (dec.)

Compound: Cc1cccc2c1CN[C@H]1CCc3cc(O)c(O)cc3[C@H]21.Cl (relative stereo)
- melting point: 195 °C (dec.)

Compound: Cc1ccc2c(c1)[C@H]1c3cc(O)c(O)cc3CC[C@@H]1NC2.Cl (relative stereo) [Compound 6b, Trans-2-methyl-10,11-dihydroxy-5,6,6a,7,8,12b-hexahydrobenzo [a]phenanthridine hydrochloride]
- melting point: 190 °C (dec.)
- D1 potency and efficacy (dopamine D1 receptor): comparable to dihydrexidine

Compound: Cc1ccc2c(c1)CN[C@H]1CCc3cc(O)c(O)cc3[C@H]21.Cl (relative stereo) [Compound 6c, Trans-3-methyl-10,11-dihydroxy-5,6,6a,7,8,12b-hexahydrobenzo[a]phenanthridine hydrochloride]
- melting point: 190 °C (dec.)
- D1 potency and efficacy (dopamine D1 receptor): comparable to dihydrexidine
- D2 potency (D2 receptor): greater D2 potency
- Ki (D1 receptors): 7 nM
- D1:D2 Selectivity (D1 receptors): 6

Compound: Cl.Oc1cc2c(cc1O)[C@@H]1c3cc(Cc4ccccc4)ccc3CN[C@H]1CC2 (relative stereo) [Compound 6e, Trans-2-benzyl-10,11-dihydroxy-5,6,6a,7,8,12b-hexahydrobenzo[a]phenanthridine hydrochloride]
- Ki (D1 receptors; rat brain striatal homogenates, 3H-SCH 23390, read-out: D1 Affinity): 290 nM
- D1:D2 Selectivity (D1 receptors): 0.6

Compound: Oc1ccc2c(c1O)Cc1cccc3c1C2CNC3 (centres unmarked) [Compound 29, 8,9-Dihydroxy-2,3,7,11b-tetrahydro-1H-napth[1,2,3-de]isoquinoline]
- Duration of functional activity ([1]; in vivo): 7 to 10 h
- half-life ([1]; serum, read-out: Serum half-life (converted)): 3 h
- Agonist activity for inhibition of cAMP synthesis at D2L receptors (D2L receptors): full agonist
- Agonist activity for inhibition of cAMP synthesis at D4 receptors (D4 receptor [2]): full agonist
- EC50 (D4 receptor [2]; inhibition of forskolin-stimulated AC, mean ± SEM, at least three experiments, read-out: EC50 (nM) ± SEM, D4): 60 ± 18 nM
- Effectiveness in activating adenylate cyclase [3]: as effective as dopamine
- Effectiveness in activating adenylate cyclase when receptor reserve is reduced ([3]; receptor reserve reduced): as effective as dopamine
- Ki (D4 receptor [4]): 60 nM

Compound: Oc1cc2c(cc1O)C(c1ccccc1)CNCC2 (centres unmarked) [SKF 38393, reference compound]
- Spatial working memory (monkeys): improved spatial working memory

Compound: CN1[C@@H]2C[C@@H](OC(=O)[C@H](CO)c3ccccc3)C[C@H]1[C@@H]1O[C@@H]12 [Scopolamine, reference compound]
- Acquisition of the passive avoidance task [5]: severe deficit

Compound: NCCc1ccc(O)c(O)c1 [dopamine]
- EC50 (D4 receptor [2]; read-out: EC50 (nM) ± SEM, D4, inhibition of forskolin-stimulated AC, mean ± SEM, at least three experiments): 1750 ± 682 nM
